Source: article PMC11585590 (Nature Communications, 2024)
“Also recorded” adds a separate entry of the source. Peptide text beside a SMILES is read from it. * marks the point of attachment. Cbz = O=C(OCc1ccccc1)*

Assays:
HiBiT-tagged WDR5 [1] = target: T1, HiBiT-tagged WDR5 (Homo sapiens, UniProt P61964+Q9Y4B6); assay: Proteasome dependence: HiBiT-WDR5 level after 5 h with PROTAC 4 and/or MG132; format: cell-based; settings: co-treatment with PROTAC 4 at 1.5 µM
WDR5 [2] = settings: highest concentration of 7.5 µM, no hook effect; cited from earlier work
[3] = tested on: MV4-11 cells expressing HiBiT WDR5; assay: ATPlite viability of MV4-11 cells expressing HiBiT WDR5, 24 h; format: cell-based; settings: 2 nM to 10 μM
HiBiT-tagged WDR5 [4] = target: T1, HiBiT-tagged WDR5; assay: Exogenous HiBiT WDR5 degradation assay, 24 h; format: cell-based; settings: for Dmax of exogenous HiBiT-WDR5 degradation: MV4-11 cells expressing HiBiT-tagged WDR5, 24 h; for Dmax: MV4-11, read-out: Dmax of exogenous HiBiT-WDR5 degradation, MV4-11 cells expressing HiBiT-tagged WDR5, 24 h
WDR5 [5] = target: WDR5 (Homo sapiens, UniProt P61964); assay: Western blot of WDR5 in MV4-11 cells, 1.5 μM PROTAC, 24 h; format: cell-based
[6] = target: DCAF1-PROTAC-WDR5 ternary complex (Homo sapiens, UniProt P61964+Q9Y4B6); assay: SPR ternary complex formation: PROTAC with 0.25 µM WDR5 on immobilized DCAF1; format: binding; settings: WDR5 0.25 µM
DCAF1-PROTAC-WDR5 ternary complex, sequence (Q9Y4B6 1077-1390, one chain of several): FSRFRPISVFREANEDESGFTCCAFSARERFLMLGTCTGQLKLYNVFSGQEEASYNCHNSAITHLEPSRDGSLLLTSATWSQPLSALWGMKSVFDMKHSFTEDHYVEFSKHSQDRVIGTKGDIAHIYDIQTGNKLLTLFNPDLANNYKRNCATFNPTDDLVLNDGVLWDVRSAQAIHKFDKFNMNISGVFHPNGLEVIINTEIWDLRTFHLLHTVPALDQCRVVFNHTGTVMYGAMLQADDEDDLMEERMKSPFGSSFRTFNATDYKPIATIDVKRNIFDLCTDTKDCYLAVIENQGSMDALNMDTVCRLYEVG

DCAF1 = DCAF1 (Homo sapiens, UniProt Q9Y4B6); assay: SPR ternary complex format: PROTAC alone on immobilized DCAF1; format: binding; settings: for Rmax: PROTAC alone, absence of WDR5; for koff: read-out: koff (1/s); for kon: read-out: kon (1/Ms)
DCAF1, sequence (Q9Y4B6 1077-1390): as the sequence (Q9Y4B6 1077-1390, one chain of several) above

endogenous WDR5 = endogenous WDR5 (Homo sapiens, UniProt P61964); assay: Endogenous WDR5 degradation assay using ProteinSimple's Jess, 24 h; format: cell-based; settings: for Dmax: MV4-11, read-out: Dmax of endogenous WDR5 degradation, parental MV4-11 cells, 24 h; for DC50: read-out: EC50 of endogenous WDR5 degradation

T1 sequence (Q9Y4B6 whole entry, one chain of several): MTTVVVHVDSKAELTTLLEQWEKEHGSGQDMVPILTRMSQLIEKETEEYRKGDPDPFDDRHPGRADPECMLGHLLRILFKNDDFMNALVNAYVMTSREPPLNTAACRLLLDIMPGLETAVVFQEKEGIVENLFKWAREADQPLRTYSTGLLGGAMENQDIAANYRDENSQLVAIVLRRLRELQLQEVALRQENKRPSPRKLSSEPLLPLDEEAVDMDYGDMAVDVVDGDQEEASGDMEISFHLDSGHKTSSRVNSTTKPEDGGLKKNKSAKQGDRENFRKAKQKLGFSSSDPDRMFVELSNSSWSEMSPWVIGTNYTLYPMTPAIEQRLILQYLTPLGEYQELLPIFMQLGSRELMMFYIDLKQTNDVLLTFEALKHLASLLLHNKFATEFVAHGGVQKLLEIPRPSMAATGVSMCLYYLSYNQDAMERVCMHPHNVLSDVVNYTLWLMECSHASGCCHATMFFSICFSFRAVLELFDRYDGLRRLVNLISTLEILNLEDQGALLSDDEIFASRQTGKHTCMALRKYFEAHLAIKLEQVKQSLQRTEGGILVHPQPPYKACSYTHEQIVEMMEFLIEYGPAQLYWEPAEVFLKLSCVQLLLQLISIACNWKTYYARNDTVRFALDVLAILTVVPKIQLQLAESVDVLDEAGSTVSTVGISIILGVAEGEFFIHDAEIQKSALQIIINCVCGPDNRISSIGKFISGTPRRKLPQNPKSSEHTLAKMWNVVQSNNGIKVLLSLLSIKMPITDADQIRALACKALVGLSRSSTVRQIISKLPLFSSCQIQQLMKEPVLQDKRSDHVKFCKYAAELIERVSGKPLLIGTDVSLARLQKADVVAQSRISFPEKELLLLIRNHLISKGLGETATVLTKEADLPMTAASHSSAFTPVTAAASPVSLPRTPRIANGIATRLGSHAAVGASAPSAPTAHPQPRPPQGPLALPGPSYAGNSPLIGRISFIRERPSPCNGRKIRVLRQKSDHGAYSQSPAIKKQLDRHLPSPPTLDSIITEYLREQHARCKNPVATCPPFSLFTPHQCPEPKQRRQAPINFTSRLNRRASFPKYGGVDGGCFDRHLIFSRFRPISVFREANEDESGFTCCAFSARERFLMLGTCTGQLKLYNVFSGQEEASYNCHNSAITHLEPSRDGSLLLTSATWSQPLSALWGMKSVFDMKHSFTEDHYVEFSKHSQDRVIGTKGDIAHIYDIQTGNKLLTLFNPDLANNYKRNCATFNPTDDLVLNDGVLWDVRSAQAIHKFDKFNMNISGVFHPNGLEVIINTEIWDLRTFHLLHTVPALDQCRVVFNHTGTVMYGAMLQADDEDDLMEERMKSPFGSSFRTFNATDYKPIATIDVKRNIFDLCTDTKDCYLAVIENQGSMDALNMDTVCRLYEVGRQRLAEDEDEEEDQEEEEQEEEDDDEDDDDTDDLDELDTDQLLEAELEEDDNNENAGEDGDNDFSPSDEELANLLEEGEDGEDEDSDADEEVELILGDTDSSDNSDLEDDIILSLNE

Compound	HiBiT-WDR5 level reached on rescue by MG132 (HiBiT-tagged WDR5 [1])	Dmax of WDR5 degradation (WDR5 [2])	toxicity / viability after 24 h (ATPlite) [3]	Dmax of exogenous HiBiT-WDR5 degradation (HiBiT-tagged WDR5 [4]) [%]	WDR5 protein level by Western blot (WDR5 [5])	Rmax [6]	Dmax (HiBiT-tagged WDR5 [4]) [%]	Kd (DCAF1) [nM]	Rmax (DCAF1)	koff (DCAF1) [s⁻¹]	kon (DCAF1) [M⁻¹ s⁻¹]	Dmax (endogenous WDR5) [%]	DC50 (endogenous WDR5; parental MV4-11 cells, 24 h) [nM]	Dmax of endogenous WDR5 degradation (endogenous WDR5; parental MV4-11 cells, 24 h) [%]	degradation of exogenous WDR5 in cells (HiBiT-tagged WDR5 [4]; MV4-11 cells)	degradation of endogenous WDR5 in cells (endogenous WDR5; MV4-11 cells)
CC(C)C[C@@H](C=O)NC(=O)[C@H](CC(C)C)NC(=O)[C@H](CC(C)C)NC(=O)OCc1ccccc1 [MG132] (Cbz-Leu-Leu-Leu-aldehyde)	approximately 100%															
Cc1ncsc1-c1ccc([C@H](C)NC(=O)[C@@H]2C[C@@H](O)CN2C(=O)[C@@H](NC(=O)CNC(=O)c2ccc(F)c(-c3ccc(N4C[C@@H](C)N(C)[C@@H](C)C4)c(NC(=O)c4c[nH]c(=O)cc4C(F)(F)F)c3)c2)C(C)(C)C)cc1 [MS67, reference compound]		~ 70%	displayed some toxicity	78.7	significantly decreased; also recorded: comparable levels of WDR5 degradation											
C[C@@H]1CN(c2ccc(-c3cc(C(=O)NCCOCCOCCOCCOCCNC(=O)/C=C/c4[nH]cc(C(=O)N[C@@H](CC(N)=O)c5ccc(F)c(Cl)c5)c4-c4ccc(Cl)cc4F)ccc3F)cc2NC(=O)c2c[nH]c(=O)cc2C(F)(F)F)C[C@H](C)N1C [PROTAC 1]				32	moderate WDR5 degradation	390	31.6 ± 5.5	46 ± 0.4	101	0.011	249000	23.5 ± 11.4	186 ± 89			
C[C@@H]1CN(c2ccc(-c3cc(C(=O)NCCOCCOCCOCCOCCNC(=O)Cn4cc(-c5[nH]cc(C(=O)N[C@@H](CC(N)=O)c6ccc(F)c(Cl)c6)c5-c5ccc(Cl)cc5F)cn4)ccc3F)cc2NC(=O)c2c[nH]c(=O)cc2C(F)(F)F)C[C@H](C)N1C [PROTAC 2]					moderate WDR5 degradation	621	41.2 ± 2.5	38 ± 0.6	106	0.008		21.9 ± 11.1	135 ± 6			
C[C@@H]1CN(c2ccc(-c3cc(C(=O)NCCOCCOCCOCCOCCOCCOCCNC(=O)/C=C/c4[nH]cc(C(=O)N[C@@H](CC(N)=O)c5ccc(F)c(Cl)c5)c4-c4ccc(Cl)cc4F)ccc3F)cc2NC(=O)c2ccc(F)cc2C(F)(F)F)C[C@H](C)N1C [PROTAC 3]					moderate WDR5 degradation	685	41.9 ± 4.5	48 ± 2.8	42	0.003	69600	33.4 ± 6.8	93 ± 37			
C[C@@H]1CN(c2ccc(-c3cc(C(=O)NCCOCCOCCOCCOCCOCCOCCOCCOCCOCCNC(=O)/C=C/c4[nH]cc(C(=O)N[C@@H](CC(N)=O)c5ccc(F)c(Cl)c5)c4-c4ccc(Cl)cc4F)ccc3F)cc2NC(=O)c2c[nH]c(=O)cc2C(F)(F)F)C[C@H](C)N1C [PROTAC 4]			did not show a significant toxicity		significantly decreased; also recorded: comparable levels of WDR5 degradation	818	73.8 ± 2.9	59 ± 0.9	102	0.014	239000	49.1	40 ± 24	49 ± 1.9		
C[C@@H]1CN(c2ccc(-c3cc(C(=O)NCCCNC(=O)/C=C/c4[nH]cc(C(=O)N[C@@H](CC(N)=O)c5ccc(F)c(Cl)c5)c4-c4ccc(Cl)cc4F)ccc3F)cc2NC(=O)c2c[nH]c(=O)cc2C(F)(F)F)C[C@H](C)N1C [PROTAC 5]															did not degrade	did not degrade
